Test results as given in ChEMBL document CHEMBL1828550, “Lead identification of β-lactam and related imine inhibitors of the molecular chaperone heat shock protein 90” (Bioorg Med Chem, 2011).
Active and inactive are the calls of the source. No cut-off for these calls is given here.

Tests used:
[1] = target: T1, Heat shock protein HSP 90-alpha (Homo sapiens, UniProt P07900); experiment: Displacement of FITC-labeled geldanamycin from human recombinant HSP90alpha after 24 hrs by fluorescence displacement assay
MCF7 = experiment: Antiproliferative activity against human MCF7 cells assessed as cell viability after 72 hrs by MTT assay; type: functional, cell-based; conditions: MCF7, 72 h
[2] = target: T1, Heat shock protein HSP 90-alpha; experiment: Inhibition of Hsp90alpha in human MCF7 assessed as induction of proteasomal ER2alpha protein degradation at 50 uM after 24 hrs by Western blot analysis relative to control
[3] = target: T1, Heat shock protein HSP 90-alpha; experiment: Inhibition of Hsp90alpha in human MCF7 assessed as induction of proteasomal ER2alpha protein degradation at 100 uM after 24 hrs by Western blot analysis relative to control

SMILES | IC50 [1] [µM] | IC50 (MCF7) [µM] | Activity [2] | Activity [3]
CCc1cc([C@@H]2CC(=O)N2c2ccc(OC)cc2)c(O)cc1O | > 200 | 52 | – | –
CCc1cc(/C=N/c2ccc3c(c2)OCO3)c(O)cc1O | 22.1 | > 100 | Active | –
COc1ccc(OC)c([C@@H]2CC(=O)N2c2ccc3c(c2)OCCO3)c1 | > 200 | 54 | – | –
CCc1cc(/C=N/c2ccc3c(c2)OCCO3)c(O)cc1O | 14.5 | > 100 | Active | –
O=C1C[C@@H](c2ccc(O)cc2O)N1c1ccc2c(c1)OCCO2 | > 200 | 23 | – | –
COc1ccc([C@@H]2CC(=O)N2c2ccc3c(c2)OCCO3)c(OC)c1 | > 200 | 53 | – | –
CCc1cc([C@@H]2CC(=O)N2c2ccc3c(c2)OCCO3)c(O)cc1O | 5.6 | 48 | Active | Active
C=CCNC1=C2C[C@@H](C)C[C@H](OC)[C@H](O)[C@@H](C)/C=C(\C)[C@H](OC(N)=O)[C@@H](OC)/C=C\C=C(/C)C(=O)NC(=CC1=O)C2=O [TANESPIMYCIN] | – | 0.09 | – | –
CCc1cc([C@@H]2CC(=O)N2c2ccc3c(c2)OCO3)c(O)cc1O | > 200 | 31 | – | –
CCc1cc([C@@H]2[C@@H](c3ccccc3)C(=O)N2c2ccc3c(c2)OCCO3)c(O)cc1O | > 200 | > 100 | – | –
CCc1cc([C@@H]2CC(=O)N2c2cc(OC)c(OC)c(OC)c2)c(O)cc1O | > 200 | 31 | – | –
